Measured values taken from patent publication US12077503B2, “Substituted cyclic amides and their use as herbicides” (FMC CORPORATION, priority 2015, dated 2024).

Key:
Format in all cases: in vivo
corn (Zea mays) [1] = assay: Test G Pre-Emergence Protocol; conditions: Zea mays, pre-emergence, 312 h, evaluated after 13 days
Procedure, shortened: (§1)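 Glasshouse pre-emergence test: soil-sown seeds, sprayed after 1 d at 15.625, 62.5 or 250 g/ha. Conditions 24/16° C day/night, 14 h light, 65% humidity, watering twice daily. Rating 13 d post-spray (100 = total damage).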

[2] = tested on: ivy-leaved morning glory (Ipomoea hederacea); assay: Test G Pre-Emergence Protocol; conditions: Ipomoea, pre-emergence, 312 h, evaluated after 13 days
Procedure, shortened: as §1

[3] = tested on: redroot pigweed (Amaranthus retroflexus); assay: Test G Pre-Emergence Protocol; conditions: Amaranthus retroflexus, pre-emergence, 312 h, evaluated after 13 days
Procedure, shortened: as §1

[4] = tested on: giant foxtail (Setaria faberi); assay: Test G Pre-Emergence Protocol; conditions: Setaria faberi, pre-emergence, 312 h, evaluated after 13 days
Procedure, shortened: as §1

[5] = tested on: barnyardgrass (Echinochloa crus-galli); assay: Test G Pre-Emergence Protocol; conditions: Echinochloa crus-galli, pre-emergence, 312 h, evaluated after 13 days
Procedure, shortened: as §1

[6] = tested on: velvetleaf (Abutilon theophrasti); assay: Test G Pre-Emergence Protocol; conditions: Abutilon theophrasti, pre-emergence, 312 h, evaluated after 13 days
Procedure, shortened: as §1

corn (Zea mays) [7] = assay: Test G Post-Emergence Protocol; conditions: Zea mays, post-emergence, 312 h
Procedure, shortened: (§2)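 Values are percent visual injury at 13 days after treatment (0 none, 100 total). Treatment was a post-emergence spray at 15.625, 62.5 or 250 g/ha on 8-day-old pot plants kept at 24/16 °C.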

[8] = tested on: ivy-leaved morning glory (Ipomoea hederacea); assay: Test G Post-Emergence Protocol; conditions: Ipomoea, post-emergence, 312 h
Procedure, shortened: as §2

[9] = tested on: redroot pigweed (Amaranthus retroflexus); assay: Test G Post-Emergence Protocol; conditions: Amaranthus retroflexus, post-emergence, 312 h
Procedure, shortened: as §2

[10] = tested on: giant foxtail (Setaria faberi); assay: Test G Post-Emergence Protocol; conditions: Setaria faberi, post-emergence, 312 h
Procedure, shortened: as §2

[11] = tested on: barnyardgrass (Echinochloa crus-galli); assay: Test G Post-Emergence Protocol; conditions: Echinochloa crus-galli, post-emergence, 312 h
Procedure, shortened: as §2

[12] = tested on: velvetleaf (Abutilon theophrasti); assay: Test G Post-Emergence Protocol; conditions: Abutilon theophrasti, post-emergence, 312 h
Procedure, shortened: as §2

CN1C[C@@H](c2ccc(C(F)(F)F)cc2)[C@H](C(=O)Nc2nnc(C(F)(F)F)o2)C1=O (racemic) [Compound 1604]
0%: plant injury at 15.625 g/ha (corn (Zea mays) [1]; 15.625 g ai/ha, read-out: Corn damage rating (100=total damage to plant; 0=no damage to plant)) | plant injury at 62.5 g/ha (corn (Zea mays) [1]; 62.5 g ai/ha, 100=total damage to plant, 0=no damage to plant, read-out: plant damage rating, Corn) | plant injury at 250 g/ha (corn (Zea mays) [1]; 250 g ai/ha, read-out: Corn damage rating (100=total damage to plant; 0=no damage to plant)) | pest or weed control at 15.625 g/ha ([2]; 15.625 g ai/ha, read-out: Morning-glory, Ivy-leaved damage rating (100=total damage to plant; 0=no damage to plant)) | pest or weed control at 62.5 g/ha ([2]; 62.5 g ai/ha, 100=total damage to plant, 0=no damage to plant, read-out: plant damage rating, Morningglory, Ivy-leaved) | pest or weed control at 250 g/ha ([2]; 250 g ai/ha, read-out: Morningglory, Ivy-leaved damage rating (100=total damage to plant; 0=no damage to plant)) | pest or weed control at 15.625 g/ha ([3]; 15.625 g ai/ha, read-out: Pigweed, Redroot damage rating (100=total damage to plant; 0=no damage to plant)) | pest or weed control at 62.5 g/ha ([3]; 62.5 g ai/ha, 100=total damage to plant, 0=no damage to plant, read-out: plant damage rating, Pigweed, Redroot) | pest or weed control at 250 g/ha ([3]; 250 g ai/ha, read-out: Pigweed, Redroot damage rating (100=total damage to plant; 0=no damage to plant)) | pest or weed control at 15.625 g/ha ([4]; 15.625 g ai/ha, read-out: Foxtail, Giant damage rating (100=total damage to plant; 0=no damage to plant)) | pest or weed control at 62.5 g/ha ([4]; 62.5 g ai/ha, 100=total damage to plant, 0=no damage to plant, read-out: plant damage rating, Foxtail, Giant) | pest or weed control at 250 g/ha ([4]; 250 g ai/ha, read-out: Foxtail, Giant damage rating (100=total damage to plant; 0=no damage to plant)) | pest or weed control at 15.625 g/ha ([5]; 15.625 g ai/ha, read-out: Barnyard grass damage rating (100=total damage to plant; 0=no damage to plant)) | pest or weed control at 62.5 g/ha ([5]; 62.5 g ai/ha, 100=total damage to plant, 0=no damage to plant, read-out: plant damage rating, Barnyardgrass) | pest or weed control at 250 g/ha ([5]; 250 g ai/ha, read-out: Barnyardgrass damage rating (100=total damage to plant; 0=no damage to plant)) | pest or weed control at 15.625 g/ha ([6]; 15.625 g ai/ha, read-out: Velvetleaf damage rating (100=total damage to plant; 0=no damage to plant)) | pest or weed control at 62.5 g/ha ([6]; 62.5 g ai/ha, 100=total damage to plant, 0=no damage to plant, read-out: plant damage rating, Velvetleaf) | pest or weed control at 250 g/ha ([6]; 250 g ai/ha, read-out: Velvetleaf damage rating (100=total damage to plant; 0=no damage to plant)) | plant injury at 15.625 g/ha (corn (Zea mays) [7]; 15.625 g ai/ha, evaluated after 13 days (100=total damage to plant; 0=no damage to plant), read-out: Corn damage rating) | plant injury at 62.5 g/ha (corn (Zea mays) [7]; 62.5 g ai/ha, evaluated after 13 days, read-out: Corn damage rating (100=total damage to plant; 0=no damage to plant)) | plant injury at 250 g/ha (corn (Zea mays) [7]; 250 g ai/ha, evaluated after 13 days, read-out: damage to plant, Corn (100=total damage to plant; 0=no damage to plant)) | pest or weed control at 15.625 g/ha ([8]; 15.625 g ai/ha, evaluated after 13 days (100=total damage to plant; 0=no damage to plant), read-out: Morningglory, Ivy-leaved damage rating) | pest or weed control at 62.5 g/ha ([8]; 62.5 g ai/ha, evaluated after 13 days, read-out: Morningglory, Ivy-leaved damage rating (100=total damage to plant; 0=no damage to plant)) | pest or weed control at 250 g/ha ([8]; 250 g ai/ha, evaluated after 13 days, read-out: damage to plant, Morningglory, Ivy-leaved (100=total damage to plant; 0=no damage to plant)) | pest or weed control at 15.625 g/ha ([9]; 15.625 g ai/ha, evaluated after 13 days (100=total damage to plant; 0=no damage to plant), read-out: Pigweed, Redroot damage rating) | pest or weed control at 62.5 g/ha ([9]; 62.5 g ai/ha, evaluated after 13 days, read-out: Pigweed, Redroot damage rating (100=total damage to plant; 0=no damage to plant)) | pest or weed control at 250 g/ha ([9]; 250 g ai/ha, evaluated after 13 days, read-out: damage to plant, Pigweed, Redroot (100=total damage to plant; 0=no damage to plant)) | pest or weed control at 15.625 g/ha ([10]; 15.625 g ai/ha, evaluated after 13 days (100=total damage to plant; 0=no damage to plant), read-out: Foxtail, Giant damage rating) | pest or weed control at 62.5 g/ha ([10]; 62.5 g ai/ha, evaluated after 13 days, read-out: Foxtail, Giant damage rating (100=total damage to plant; 0=no damage to plant)) | pest or weed control at 250 g/ha ([10]; 250 g ai/ha, evaluated after 13 days, read-out: damage to plant, Foxtail, Giant (100=total damage to plant; 0=no damage to plant)) | pest or weed control at 15.625 g/ha ([11]; 15.625 g ai/ha, evaluated after 13 days (100=total damage to plant; 0=no damage to plant), read-out: Barnyardgrass damage rating) | pest or weed control at 62.5 g/ha ([11]; 62.5 g ai/ha, evaluated after 13 days, read-out: Barnyardgrass damage rating (100=total damage to plant; 0=no damage to plant)) | pest or weed control at 250 g/ha ([11]; 250 g ai/ha, evaluated after 13 days, read-out: damage to plant, Barnyardgrass (100=total damage to plant; 0=no damage to plant)) | pest or weed control at 15.625 g/ha ([12]; 15.625 g ai/ha, evaluated after 13 days (100=total damage to plant; 0=no damage to plant), read-out: Velvetleaf damage rating) | pest or weed control at 62.5 g/ha ([12]; 62.5 g ai/ha, evaluated after 13 days, read-out: Velvetleaf damage rating (100=total damage to plant; 0=no damage to plant)) | pest or weed control at 250 g/ha ([12]; 250 g ai/ha, evaluated after 13 days, read-out: damage to plant, Velvetleaf (100=total damage to plant; 0=no damage to plant))
